Assay results reported in patent US20240368163A1, “COMPOUNDS AND METHODS FOR MODULATING SPLICING” (REMIX THERAPEUTICS INC., priority 2021, published 2024).
pIC50: −log10 of the molar value.

Experiments:
Type in all cases: cell-based, human
SMN2 = assay: Splicing RT-qPCR panel, SMN2 canonical junction (CJ) mRNA; details: Homo sapiens, gene panel, CJ qPCR, protocol of Example 142; read-out: SMN2 IC50 (decrease in CJ mRNA levels)
Procedure, shortened: (§1)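 First, A673 cells adhered 24 h, while K562 cells were plated directly. Next, compounds were added as an 11-point 3-fold series from 10 uM for 24 h. Finally, lysates went to RT-qPCR, with 2^(−ΔΔCt) values converted to percentage response.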

HTT [1] = assay: HiBiT protein abundance assay, HTT; details: Homo sapiens, K562, 24 h, Table 13B, modified K562 cells
Procedure, shortened: (§2)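 Target abundance was measured as HiBiT luminescence after 24 h compound treatment of tagged K562 cells. Responses were normalized between unmodified K562 and DMSO-treated tagged cells, and IC50 taken at the 50% level of a 4PL curve.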

HTT [2] = assay: Splicing RT-qPCR assay, HTT mRNA canonical junction (CJ) and alternative junction (AJ); details: Homo sapiens, gene panel, CJ qPCR, protocol of Example 142; read-out: HTT IC50 (decrease in CJ mRNA levels)
Procedure, shortened: as §1

MYB [3] = assay: HiBiT protein abundance assay, MYB; details: Homo sapiens, K562, 24 h, Table 13B, modified K562 cells
Procedure, shortened: as §2

Target C [4] = assay: HiBiT protein abundance assay, Target C; details: Homo sapiens, K562, 24 h, Table 13B, modified K562 cells
Procedure, shortened: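 Cells carrying the HiBiT knock-in were plated at 10000 cells/well, dosed with compound (10-point, 3-fold, 10 μM top final) and incubated 24 hours at 37 °C. Lytic reagent was then added and luminescence read. Percent response fed a 4PL fit for IC50.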

Target C [5] = assay: Splicing RT-qPCR panel, Target C canonical junction (CJ) mRNA; details: Homo sapiens, gene panel, CJ qPCR, protocol of Example 142; read-out: Target C IC50 (decrease in CJ mRNA levels)
Procedure, shortened: as §1

MYB [6] = assay: Splicing RT-qPCR assay, MYB mRNA canonical junction (CJ) and alternative junction (AJ); details: Homo sapiens, gene panel, CJ qPCR, protocol of Example 142; read-out: MYB IC50 (decrease in CJ mRNA levels)
Procedure, shortened: as §1

Compound | pIC50 (SMN2) | pIC50 (HTT [1]) | pIC50 (HTT [2]) | pIC50 (MYB [3]) | pIC50 (Target C [4]) | pIC50 (Target C [5]) | pIC50 (MYB [6])
CCOc1nc(-c2ccc(N(C)[C@@H]3C[C@H]4CC[C@@H](C3)N4)nn2)ccc1-c1cn[nH]c1 [Compound 929] | > 7.00 | > 7.00 | > 7.00 | > 7.00 | > 7.00 | > 7.00 | > 7.00
COc1nc(-c2ccc(N(C)C3C[C@H]4CC[C@@H](C3)N4)nn2)ccc1-c1cnn(C)n1 (stereo partly shown) [Compound 932] | 6.00 to 7.00 | 6.00 to 7.00 | 6.00 to 7.00 | 6.00 to 7.00 | 6.00 to 7.00 | 6.00 to 7.00 | 6.00 to 7.00
COc1nc(-c2ccc(NC3CCNCC3)nn2)ccc1-c1cnn(C)n1 [Compound 933] | 5.00 to 6.00 | 5.00 to 6.00 | < 5.00 | 5.00 to 6.00 | 5.00 to 6.00 | < 5.00 | < 5.00
COc1nc(-c2ccc(OC3CC(C)(C)NC(C)(C)C3)nn2)ccc1-n1cccn1 [Compound 934] | 5.00 to 6.00 | 5.00 to 6.00 | 5.00 to 6.00 | 5.00 to 6.00 | 5.00 to 6.00 | < 5.00 | < 5.00
COc1nc(-c2ccc(N(C)C3CC(C)(C)NC(C)(C)C3)nn2)ccc1-n1cccn1 [Compound 935] | 6.00 to 7.00 | 6.00 to 7.00 | 6.00 to 7.00 | 6.00 to 7.00 | 6.00 to 7.00 | 6.00 to 7.00 | 6.00 to 7.00
CNc1nc(-c2ccc(N(C)[C@@H]3C[C@H]4CC[C@@H](C3)N4)nn2)ccc1-c1cn[nH]c1 [Compound 936] | > 7.00 | 6.00 to 7.00 | 6.00 to 7.00 | 6.00 to 7.00 | 6.00 to 7.00 | 6.00 to 7.00 | 5.00 to 6.00
CC(C)Oc1nc(-c2ccc(N(C)[C@@H]3C[C@H]4CC[C@@H](C3)N4)nn2)ccc1-c1cn[nH]c1 [Compound 937] | > 7.00 | 6.00 to 7.00 | 6.00 to 7.00 | 6.00 to 7.00 | 5.00 to 6.00 | 5.00 to 6.00 | 6.00 to 7.00
CN(C)c1nc(-c2ccc(N(C)[C@@H]3C[C@H]4CC[C@@H](C3)N4)nn2)ccc1-c1cn[nH]c1 [Compound 938] | 5.00 to 6.00 | 5.00 to 6.00 | 5.00 to 6.00 | 5.00 to 6.00 | 5.00 to 6.00 | 5.00 to 6.00 | < 5.00
COc1nc(-c2ccc(NC3CCNCC3)nn2)ccc1-n1cccn1 [Compound 941] | 5.00 to 6.00 | < 5.00 | < 5.00 | < 5.00 | < 5.00 | < 5.00 | < 5.00
COc1nc(-c2ccc(N[C@@H]3C[C@H]4CC[C@@H](C3)N4)nn2)ccc1-c1cnn(C)n1 [Compound 942] | > 7.00 | > 7.00 | 5.00 to 6.00 | 6.00 to 7.00 | 6.00 to 7.00 | 5.00 to 6.00 | < 5.00
COc1nc(-c2ccc(O[C@@H]3C[C@H]4CC[C@@H](C3)N4)nn2)ccc1-c1cn(C)nn1 [Compound 943] | < 5.00 | 5.00 to 6.00 | 5.00 to 6.00 | 5.00 to 6.00 | < 5.00 | < 5.00 | < 5.00
COc1nc(-c2ccc(N[C@@H]3C[C@H]4CC[C@@H](C3)N4)nn2)ccc1-c1cn(C)nn1 [Compound 944] | 6.00 to 7.00 | 5.00 to 6.00 | 6.00 to 7.00 | 6.00 to 7.00 | 5.00 to 6.00 | 5.00 to 6.00 | 5.00 to 6.00
COc1nc(-c2ccc(N(C)[C@@H]3C[C@H]4CC[C@@H](C3)N4)nn2)ccc1-c1cn(C)nn1 [Compound 945] | > 7.00 | 6.00 to 7.00 | 6.00 to 7.00 | 6.00 to 7.00 | 6.00 to 7.00 | 5.00 to 6.00 | 5.00 to 6.00
COc1nc(-c2ccc(OC3CC(C)(C)NC(C)(C)C3)nn2)ccc1-c1cn(C)nn1 [Compound 946] | 6.00 to 7.00 | 5.00 to 6.00 | 5.00 to 6.00 | 5.00 to 6.00 | < 5.00 | < 5.00 | 5.00 to 6.00
COc1nc(-c2ccc(N[C@@H]3C[C@H]4CC[C@@H](C3)N4)nn2)ccc1-n1cccn1 [Compound 948] | 6.00 to 7.00 | 6.00 to 7.00 | 6.00 to 7.00 | 6.00 to 7.00 | 6.00 to 7.00 | 5.00 to 6.00 | 5.00 to 6.00
COc1nc(-c2ccc(OC3CC4CCC(C3)N4)nn2)ccc1-n1cccn1 (stereo not shown) [Compound 949] | 5.00 to 6.00 | 5.00 to 6.00 | 5.00 to 6.00 | 5.00 to 6.00 | 5.00 to 6.00 | < 5.00 | < 5.00

Compound | pIC50 (SMN2) | pIC50 (HTT [1]) | pIC50 (HTT [2]) | pIC50 (MYB [3]) | pIC50 (Target C [4]) | pIC50 (Target C [5]) | pIC50 (MYB [6])
COc1nc(-c2ccc(N(C)[C@@H]3C[C@H]4CC[C@@H](C3)N4)nn2)ccc1-c1cnc(C)cn1 [Compound 950] | > 7.00 | 6.00 to 7.00 | 6.00 to 7.00 | 6.00 to 7.00 | 6.00 to 7.00 | 5.00 to 6.00 | 6.00 to 7.00
COc1cnc(-c2ccc(-c3ccc(N(C)[C@@H]4C[C@H]5CC[C@@H](C4)N5)nn3)nc2OC)cn1 [Compound 951] | 6.00 to 7.00 | > 7.00 | 6.00 to 7.00 | 6.00 to 7.00 | 6.00 to 7.00 | 6.00 to 7.00 | 6.00 to 7.00
COc1nc(-c2ccc(N3CCC(NC(C)(C)C)C3)nn2)ccc1-n1cccn1 (stereo not shown) [Compound 957] | 5.00 to 6.00 | 5.00 to 6.00 | 5.00 to 6.00 | 5.00 to 6.00 | 5.00 to 6.00 | 5.00 to 6.00 | 5.00 to 6.00
COc1nc(-c2ccc(N3CCC(NC4CC4)C3)nn2)ccc1-n1cccn1 (stereo not shown) [Compound 958] | 5.00 to 6.00 | < 5.00 | < 5.00 | < 5.00 | < 5.00 | < 5.00 | < 5.00
COc1cc(-c2ccc(-c3ccc(N(C)[C@@H]4C[C@H]5CC[C@@H](C4)N5)nn3)nc2OC)cnn1 [Compound 959] | > 7.00 | > 7.00 | > 7.00 | 6.00 to 7.00 | 6.00 to 7.00 | 6.00 to 7.00 | 6.00 to 7.00
COc1nc(-c2ccc(N(C)[C@@H]3C[C@H]4CC[C@@H](C3)N4)nn2)ccc1-c1cnnc(C)c1 [Compound 960] | 6.00 to 7.00 | 5.00 to 6.00 | 5.00 to 6.00 | 5.00 to 6.00 | < 5.00 | 5.00 to 6.00 | 5.00 to 6.00
COc1nc(-c2ccc(O[C@@H]3C[C@H]4CC[C@@H](C3)N4)nn2)ccc1-c1ccnc(C)c1 [Compound 963] | 5.00 to 6.00 | 5.00 to 6.00 | 5.00 to 6.00 | 5.00 to 6.00 | < 5.00 | < 5.00 | 5.00 to 6.00
COc1nc(-c2ccc(OC3CC4CC(F)(F)C(C3)N4)nn2)ccc1-c1ccnc(C)c1 (stereo not shown) [Compound 964] | < 5.00 | < 5.00 | < 5.00 | < 5.00 | < 5.00 | < 5.00 | < 5.00
CC1(C)CC(Oc2ccc(-c3ccc(-c4cn[nH]c4)c(OC4CC4)n3)nn2)CC(C)(C)N1 [Compound 968] | 6.00 to 7.00 | 6.00 to 7.00 | 6.00 to 7.00 | 5.00 to 6.00 | 5.00 to 6.00 | 5.00 to 6.00 | 5.00 to 6.00
CCOc1nc(-c2ccc(OC3CC4CC(F)(F)C(C3)N4)nn2)ccc1-c1cn[nH]c1 (stereo not shown) [Compound 970] | 5.00 to 6.00 | < 5.00 | < 5.00 | < 5.00 | < 5.00 | < 5.00 | < 5.00
COc1nc(-c2ccc(OC3CC4CC(F)(F)C(C3)N4)nn2)ccc1C1C=CC(F)=C1 (stereo not shown) [Compound 971] | 5.00 to 6.00 | 5.00 to 6.00 | 5.00 to 6.00 | 5.00 to 6.00 | 5.00 to 6.00 | 5.00 to 6.00 | 5.00 to 6.00
COc1cc(-c2ccc(N3CCC(NC(C)(C)C)C3)nn2)ncc1-n1cccn1 (stereo not shown) [Compound 972] | 6.00 to 7.00 | 6.00 to 7.00 | 6.00 to 7.00 | 5.00 to 6.00 | 5.00 to 6.00 | 5.00 to 6.00 | 5.00 to 6.00
COc1nc(-c2ccc(N(C)[C@@H]3C[C@H]4CC[C@@H](C3)N4)cn2)ccc1-c1cn[nH]c1 [Compound 978] | < 5.00 | 5.00 to 6.00 | < 5.00 | 5.00 to 6.00 | < 5.00 | < 5.00 | < 5.00
COc1nc(-c2ccc(N(C)[C@@H]3C[C@H]4CC[C@@H](C3)N4)nc2)ccc1-c1cn[nH]c1 [Compound 979] | > 7.00 | > 7.00 | > 7.00 | 6.00 to 7.00 | > 7.00 | 6.00 to 7.00 | 6.00 to 7.00
COc1nc(-c2cnc(N(C)[C@@H]3C[C@H]4CC[C@@H](C3)N4)cn2)ccc1-c1cn[nH]c1 [Compound 980] | < 5.00 | 5.00 to 6.00 | 5.00 to 6.00 | 5.00 to 6.00 | 5.00 to 6.00 | 5.00 to 6.00 | 5.00 to 6.00
